Data from patent publication US10246442B2, “4-Aminoquinazolin compounds as prolyl hydroxylase inhibitors” (JANSSEN PHARMACEUTICA NV, priority 2011, dated 2019).

Tests used:
PHD2181-417 = PHD2181-417 (Homo sapiens (Human), UniProt Q9GZT9); experiment: PHD enzymatic assay ([14C]-succinic acid production); type: biochemical; conditions: purified PHD2181-417, HIF-1α peptide substrate, 30 min pre-incubation; average of results
Description: Expression and Purification of PHD2181-417
The human PHD2 expression construct containing amino acids 181-417 of GenBank Accession ID NM_022051 was cloned into a pBAD vector (Invitrogen), incorporating both an N-terminal histidine tag and a Smt3-tag, both of which are cleaved by Ulp1. Protein production was achieved by expression in BL21 cells grown in Terrific Broth containing 100 μg/ml ampicillin. Cell cultures were inoculated at 37° C. and grown to an OD600 of 0.8. Cultures were induced with 0.1% arabinose and grown overnight at 20° C. with continuous shaking at 225 rpm. Cells were then harvested by centrifugation and stored at −80° C. Cell pellets were suspended in Buffer A (50 mM Tris-HCl pH 7.2, 100 mM NaCl, 100 mM L-arginine, 1 mM TCEP, 0.05% (w/v) NP-40, 50 mM imidazole) followed by the addition of lysozyme and benzonase. Cells were lysed by sonication and the lysate was cleared by centrifugation (15,000 rpm, 90 min, 4° C.). The protein was purified by nickel affinity chromatography using a HisTrap Crude FF column (GE Healthcare). Samples were eluted in Buffer A with a 50-200 mM imidazole gradient. Cleavage of the Smt tag with Ulp1 protease was achieved via overnight incubation with dialyzing against Buffer A. The PHD2181-417 sample was then passed over a second HisTrap Crude FF column (GE Healthcare) to remove uncleaved protein. The flow-through was then dialyzed into 50 mM MES pH 6.0, 1 mM TCEP, 5 mM NaCl for ion exchange chromatography on a HiTrap SP Cation Exchange column (GE Healthcare). The PHD2181-417 protein was eluted with a 0-0.2 M NaCl gradient. Fractions were pooled for further purification by size exclusion chromatography over a Superdex 75 Size Exclusion Column (GE Healthcare). Final protein was concentrated to 4 mg/ml and dialyzed in 10 mM PIPES pH 7.0, 100 mM NaCl, 0.5 mM TCEP.
(10 μM, California Peptide Research Inc., Napa, Calif.), and [5-^14C]-2-oxoglutaric acid (50 mCi/mmol, Moravek Chemicals, Brea, Calif.) in reaction buffer (40 mM Tris-HCl, pH 7.5, 0.4 mg/ml catalase, 0.5 mM DTT, 1 mM ascorbate) for 10 minutes. Compounds were pre-incubated for 30 min before starting the reaction (all test compounds were dissolved at 10 mM in 100% DMSO (w/v) and were tested with final compound concentrations at 100 μM in 1% DMSO (w/v)). The reaction was stopped by addition of 50 μl of 70 mM H3PO4 and 50 μl of 500 mM NaH2PO4, pH 3.2. Detection of [^14C]-succinic acid was achieved by separating from [5-^14C]-2-oxoglutaric acid by incubating the reaction mixture with 100 μl of 0.16 M DNP prepared in 30% perchloric acid. Next, 50 μl of unlabeled 20 mM 2-oxoglutaric acid/20 mM succinic acid, serving as carrier for the radioactivity, was added to the mixture, and was allowed to proceed for 30 minutes at room temperature. The reaction was then incubated with 50 μl of 1 M 2-oxoglutaric acid for 30 additional minutes at room temperature to precipitate the excess DNP. The reaction was then centrifuged at 2800×g for 10 minutes at room temperature to separate [^14C]-succinic acid in the supernatant from the precipitated [^14C]-dinitrophenylhydrazone. Fractions of the supernatant (400 μI) were counted using a beta counter (Beckman Coulter, Fullerton, Calif.). Inhibition of PHD2181-417 activity was measured as a decrease in succinic acid production. The IC50 values were estimated by fitting the data to a three-parameter logistic function using GraphPad Prism, version 4.02 (Graph Pad Software, San Diego, Calif.).

[1] = tested on: Erythropoietin secretion, Hep-3B cells; experiment: Cellular assay: EPO secretion in Hep-3B cells; type: cell-based; conditions: Homo sapiens, Hep3B, 100 μM compound, 24 hours, percent of EPO secretion relative to assay control compound 7-[(4-Chloro-phenyl)-(5-methyl-isoxazol-3-ylamino)-methyl]-quinolin-8-ol, read-out: Cellular % EPO Stimulation
Description: Hep-3B cells (ATCC, Manassas, Va.) were plated in 96-well plates at 20,000 cells per well in 100 μl of DMEM containing 10% fetal bovine serum, 1% non-essential amino acids, 50 IU/mL of penicillin and 50 μg/mL of streptomycin (all cell culture reagents from Invitrogen, Carlsbad, Calif.). Twenty-four hours after plating, compounds were added and incubated for an additional 24 hours. All compounds were tested with final compound concentrations at 100 μM. Fifty microliters of the supernatant was then transferred to a human Hypoxia assay kit (Meso-Scale Discovery, Gaithersburg, Md.). Erythropoietin in the supernatant was detected according to the manufacturer's instructions as follows. EPO detection plates were blocked with 3% BSA in PBS overnight and 50 μl of the supernatant was incubated at room temperature in an orbital shaker for 2 h. Twenty-five microliters of 0.5 μg/ml anti-EPO detection antibody was added for 2 hours at room temperature in an orbital shaker. After 3 washes in PBS, 150 μl of 1× read buffer is added and the plate is then read on the MSD SECTOR instrument. Data was analyzed by determining the percent of EPO secretion in the presence of 100 μM compound relative to an assay control compound, 7-[(4-Chloro-phenyl)-(5-methyl-isoxazol-3-ylamino)-methyl]-quinolin-8-ol.

Chain of PHD2181-417 (Q9GZT9 181-417): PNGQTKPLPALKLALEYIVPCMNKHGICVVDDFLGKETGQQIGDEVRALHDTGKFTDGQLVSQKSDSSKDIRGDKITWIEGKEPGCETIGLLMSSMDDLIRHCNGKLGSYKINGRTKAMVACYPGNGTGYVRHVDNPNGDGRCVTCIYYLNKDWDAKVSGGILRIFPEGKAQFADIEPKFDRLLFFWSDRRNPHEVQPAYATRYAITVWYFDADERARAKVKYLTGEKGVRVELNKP

Row | Enzyme pIC50 (PHD2181-417) | SMILES | activation at 100 µM [1] [%]
1 | 7.1 | O=C(O)c1cnn(-c2nc(N3CCCCC3)c3cc(C4CCCCC4)ccc3n2)c1 [Example 26, 1-(6-Cyclohexyl-4-(piperidin-1-yl)quinazolin-2-yl)-1H-pyrazole-4-carboxylic acid] | 20
2 | 7.1 | CN(C)c1nc(-n2cc(C(=O)O)cn2)nc2ccc(Cc3ccccc3)cc12 [Example 179, 1-(6-benzyl-4-(dimethylamino)quinazolin-2-yl)-1H-pyrazole-4-carboxylic acid] | –
3 | 6.5 | O=C(O)c1cnn(-c2nc(N3CCOCC3)c3cc(Cc4ccccc4)ccc3n2)c1 [Example 178, 1-(6-benzyl-4-morpholinoquinazolin-2-yl)-1H-pyrazole-4-carboxylic acid] | –
4 | 7.3 | O=C(O)c1cnn(-c2nc(N3CCCC3)c3cc(Oc4ccc(Cl)cc4)ccc3n2)c1 [Example 61, 1-(6-(4-Chlorophenoxy)-4-(pyrrolidin-1-yl)quinazolin-2-yl)-1H-pyrazole-4-carboxylic acid] | 96
5 | 7.0 | Cc1cccc(C)c1Oc1cc2c(N3CCOCC3)nc(-n3cc(C(=O)O)cn3)nc2cc1F [Example 20, 1-(6-(2,6-Dimethylphenoxy)-7-fluoro-4-morpholinoquinazolin-2-yl)-1H-pyrazole-4-carboxylic acid] | 54
6 | 7.0 | O=C(O)c1cnn(-c2nc(N3CCCCC3)c3ccc(Oc4ccccc4)cc3n2)c1 [Example 79, 1-(7-Phenoxy-4-(piperidin-1-yl)quinazolin-2-yl)-1H-pyrazole-4-carboxylic acid] | 38
7 | 7.2 | CCN(C)c1nc(-n2cc(C(=O)O)cn2)nc2ccc(Cc3ccccc3)cc12 [Example 183, 1-(6-benzyl-4-(ethyl(methyl)amino)quinazolin-2-yl)-1H-pyrazole-4-carboxylic acid] | –
8 | 7.1 | O=C(O)c1cnn(-c2nc(N3CCCC3)c3cc(Cc4ccccc4)ccc3n2)c1 [Example 181, 1-(6-benzyl-4-(pyrrolidin-1-yl)quinazolin-2-yl)-1H-pyrazole-4-carboxylic acid] | –
9 | 7.1 | CCN(CC)c1nc(-n2cc(C(=O)O)cn2)nc2ccc(Cc3ccccc3)cc12 [Example 180, 1-(6-benzyl-4-(diethylamino)quinazolin-2-yl)-1H-pyrazole-4-carboxylic acid] | –
10 | 7.1 | O=C(O)c1cnn(-c2nc(NC3CC3)c3cc(Cc4ccccc4)ccc3n2)c1 [Example 182, 1-(6-benzyl-4-(cyclopropylamino)quinazolin-2-yl)-1H-pyrazole-4-carboxylic acid] | –

The remaining lines, values behind:

Row | SMILES | Enzyme pIC50 (PHD2181-417) | activation at 100 µM [1] [%]
11 | CN(C)c1nc(-n2cc(C(=O)O)cn2)nc2cc(F)c(OC3CCCCC3)cc12 [Example 101, 1-(7-fluoro-6-(cyclohexyloxy)-4-(dimethylamino)quinazolin-2-yl)-1H-pyrazole-4-carboxylic acid] | 7.1 | 85
12 | Cc1cccc(C)c1Oc1cc2c(N(C)C)nc(-n3cc(C(=O)O)cn3)nc2cc1F [Example 3, 1-[4-Dimethylamino-6-(2,6-dimethyl-phenoxy)-7-fluoro-quinazolin-2-yl]-1H-pyrazole-4-carboxylic acid] | – | 68
13 | CC(C)c1cc2c(N3CCCC3)nc(-n3cc(C(=O)O)cn3)nc2cc1Cl [Example 163, 1-(7-chloro-4-(pyrrolidin-1-yl)-6-isopropylquinazolin-2-yl)-1H-pyrazole-4-carboxylic acid] | 7.3 | 26
14 | CC(C)c1ccc2nc(-n3cc(C(=O)O)cn3)nc(N(C)C)c2c1 [Example 185, 1-(4-(dimethylamino)-6-isopropylquinazolin-2-yl)-1H-pyrazole-4-carboxylic acid] | 7.0 | 62
15 | O=C(O)c1cnn(-c2nc(N3CCCC3)c3cc(OC4CCCCC4)c(F)cc3n2)c1 [Example 103, 1-(7-fluoro-6-(cyclohexyloxy)-4-(pyrrolidin-1-yl)quinazolin-2-yl)-1H-pyrazole-4-carboxylic acid] | 7.3 | 31
16 | Cc1cccc(C)c1CNc1nc(-n2cc(C(=O)O)cn2)nc2ccc(C3CCCCC3)cc12 [Example 23, 1-[6-Cyclohexyl-4-(2,6-dimethyl-benzylamino)-quinazolin-2-yl]-1H-pyrazole-4-carboxylic acid] | – | 7
17 | O=C(O)c1cnn(-c2nc(N3CCCC3)c3cc(OC4CCCCC4)ccc3n2)c1 [Example 175, 1-(6-(cyclohexyloxy)-4-(pyrrolidin-1-yl)quinazolin-2-yl)-1H-pyrazole-4-carboxylic acid] | – | 46
18 | Cc1cccc(C)c1Oc1cc2c(NCC3CC3)nc(-n3cc(C(=O)O)cn3)nc2cc1F [Example 15, 1-((4-Cyclopropanemethylamino)-6-(2,6-dimethylphenoxy)-7-fluoroquinazolin-2-yl)-1H-pyrazole-4-carboxylic acid] | – | 64
19 | CCN(CC)c1nc(-n2cc(C(=O)O)cn2)nc2cc(Cl)c(OC3CCCCC3)cc12 [Example 138, 1-(7-chloro-6-(cyclohexyloxy)-4-(diethylamino)quinazolin-2-yl)-1H-pyrazole-4-carboxylic acid] | 7.5 | –
20 | O=C(O)c1cnn(-c2nc(N3CCCC3)c3cc(OC4CCCCC4)c(Cl)cc3n2)c1 [Example 139, 1-(7-chloro-6-(cyclohexyloxy)-4-(pyrrolidin-1-yl)quinazolin-2-yl)-1H-pyrazole-4-carboxylic acid] | 7.1 | –
21 | Cc1cccc(C)c1Oc1cc2c(N)nc(-n3cc(C(=O)O)cn3)nc2cc1F [Example 1, 1-[4-Amino-6-(2,6-dimethyl-phenoxy)-7-fluoro-quinazolin-2-yl]-1H-pyrazole-4-carboxylic acid] | – | 51
22 | Cc1cccc(C)c1Oc1cc2c(Nc3ccccc3Cl)nc(-n3cc(C(=O)O)cn3)nc2cc1F [Example 7, 1-[4-(2-Chloro-phenylamino)-6-(2,6-dimethyl-phenoxy)-7-fluoro-quinazolin-2-yl]-1H-pyrazole-4-carboxylic acid] | – | 13
23 | O=C(O)c1cnn(-c2nc(NC3CC3)c3cc(OC4CCCCC4)c(Cl)cc3n2)c1 [Example 141, 1-(7-chloro-6-(cyclohexyloxy)-4-(cyclopropylamino)quinazolin-2-yl)-1H-pyrazole-4-carboxylic acid] | 7.0 | –
24 | CCN(CC)c1nc(-n2cc(C(=O)O)cn2)nc2ccc(OC3CCCCC3)cc12 [Example 174, 1-(6-(cyclohexyloxy)-4-(diethylamino)quinazolin-2-yl)-1H-pyrazole-4-carboxylic acid] | – | 35
